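Five concentrations, 48 hours, 96-well plates. TGI is the concentration that stops growth completely.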
Experiments:
Assay in all cases: DTP human tumour cell line panel, 48 h
MALME-3M melanoma = test system: MALME-3M melanoma
U251 CNS = test system: U251 CNS
RPMI-8226 leukemia = test system: RPMI-8226 leukemia
SF-295 CNS = test system: SF-295 CNS
RXF 393 renal = test system: RXF 393 renal
TK-10 renal = test system: TK-10 renal
OVCAR-8 ovarian = test system: OVCAR-8 ovarian
HCT-116 colon = test system: HCT-116 colon
LOX IMVI melanoma = test system: LOX IMVI melanoma
KM12 colon = test system: KM12 colon
OVCAR-4 ovarian = test system: OVCAR-4 ovarian
UO-31 renal = test system: UO-31 renal
DU-145 prostate = test system: DU-145 prostate
IGROV1 ovarian = test system: IGROV1 ovarian
SK-MEL-28 melanoma = test system: SK-MEL-28 melanoma
SF-268 CNS = test system: SF-268 CNS
SN12C renal = test system: SN12C renal
HT29 colon = test system: HT29 colon
SNB-19 CNS = test system: SNB-19 CNS
MDA-MB-435 = test system: MDA-MB-435
SNB-75 CNS = test system: SNB-75 CNS
M14 melanoma = test system: M14 melanoma
NCI-H226 lung = test system: NCI-H226 lung
SR leukemia = test system: SR leukemia
HOP-62 NSCLC = test system: HOP-62 NSCLC
UACC-62 melanoma = test system: UACC-62 melanoma
HOP-92 NSCLC = test system: HOP-92 NSCLC
PC-3 prostate = test system: PC-3 prostate
SK-MEL-2 melanoma = test system: SK-MEL-2 melanoma
NCI-H522 lung = test system: NCI-H522 lung
MCF7 breast = test system: MCF7 breast
SF-539 CNS = test system: SF-539 CNS
K-562 leukemia = test system: K-562 leukemia
NCI-H460 lung = test system: NCI-H460 lung
SK-MEL-5 melanoma = test system: SK-MEL-5 melanoma
EKVX NSCLC = test system: EKVX NSCLC
SK-OV-3 ovarian = test system: SK-OV-3 ovarian
A549 NSCLC = test system: A549 NSCLC
ACHN renal = test system: ACHN renal
OVCAR-3 ovarian = test system: OVCAR-3 ovarian
HS 578T breast = test system: HS 578T breast
CAKI-1 renal = test system: CAKI-1 renal
T-47D breast = test system: T-47D breast
COLO 205 colon = test system: COLO 205 colon
NCI/ADR-RES ovarian = test system: NCI/ADR-RES ovarian
A498 renal = test system: A498 renal
MDA-N = test system: MDA-N
MOLT-4 leukemia = test system: MOLT-4 leukemia
MDA-MB-231 breast = test system: MDA-MB-231 breast
NCI-H23 lung = test system: NCI-H23 lung
OVCAR-5 ovarian = test system: OVCAR-5 ovarian
HCT-15 colon = test system: HCT-15 colon
UACC-257 melanoma = test system: UACC-257 melanoma
SW-620 colon = test system: SW-620 colon
786-0 renal = test system: 786-0 renal

Measured: TGI

CCOCCOC(=O)C1CCC(=O)N1CN(C(C)=O)c1cc(OC)ccc1OC (stereo not given)
> 100 µM: all assays above
